From patent publication US20090130707A1, “Methods of reducing the inhibitory effect of a redox active metal ion on the enzymatic hydrolysis of cellulosic material” (priority 2007, published 2009)

How the values were obtained:
[1] = tested on: Cellulolytic Enzyme Composition #1; test: mini-scale AVICEL hydrolysis by Cellulolytic Enzyme Composition #1; format: biochemical, Trichoderma reesei; details: 3 mM; 23 g AVICEL and 0.25 g enzyme per liter
Procedure: FIGS. 19A, 19B, 19C, and 19D show the effective inhibitory concentration range of Fe(II) on the hydrolysis of AVICEL® by Cellulolytic Enzyme Composition #1 (A and B) and on the hydrolysis of PASC by Cellulolytic Enzyme Composition #1 (C and D). The AVICEL® hydrolysis was conducted with […] of AVICEL® and 0.25 g of Cellulolytic Enzyme Composition #1 per liter of 50 mM sodium acetate pH 5 at 50° C. FeSO4 (mM): (∘) 0, (+) 1, (Δ) 3, (⋄) 5, (□) 10. Dixon plot linear regression line: 1/Rate=(0.035±0.003)[Fe(II)]+(0.043±0.015), r^2=0.978. Rate was estimated from the hydrolysis difference (%) at 24 and 6 hours. The PASC hydrolysis was conducted with 2 g of PASC and 50 mg of Cellulolytic Enzyme Composition #1 per liter of 50 mM sodium acetate pH 5 at 50° C. Dixon plot linear regression line: 1/Rate=(0.0042±0.0003)[Fe(II)]+(0.059±0.002), r^2=0.994. Rates were estimated from the hydrolysis difference (%) at 7 hours.
(§1) The effect of various salts (FeSO4, FeCl2, NaCl, Na2SO4, MnSO4, MnCl2) was determined in the hydrolysis of PCS by Cellulolytic Enzyme Composition #2. The PCS hydrolysis was performed in duplicate in capped 1.7 ml EPPENDORF® tubes (“mini-scale”) containing 1 ml suspensions of 43.4 g of PCS (dry weight) per liter, 10 mM salts in 50 mM sodium acetate pH 5. Cellulolytic Enzyme Composition #2 was added at 0.25 g per liter. Reactions without the addition of the salt served as controls. The capped tubes were incubated at 50° C. in an INNOVA® 4080 incubator shaker (New Brunswick Scientific Co., Inc., Edison, N.J., USA) at 150 rpm.
In one series of “mini-scale” hydrolysis reactions performed according to the procedure described in Example 30, the effect of 1 mM to 10 mM FeSO4 was evaluated in the hydrolysis of AVICEL® by Cellulolytic Enzyme Composition #1.

[2] = tested on: Cellulolytic Enzyme Composition #1; test: mini-scale PCS hydrolysis by Cellulolytic Enzyme Composition #1; format: biochemical, Trichoderma reesei; details: PCS hydrolysis (FIGS. 23A-23D)
Procedure: as §1
(§2) Aliquots of the suspensions, sampled over time, were filtered by centrifugation using a 0.45 μm MULTISCREEN® HV membrane (Millipore, Billerica, Mass., USA) at 2000 rpm for 15 minutes using a SORVALL® RT7 centrifuge (Thermo Fisher Scientific, Waltham, Mass., USA). When not used immediately, the filtered sugary aliquots were frozen at −20° C. Sugar concentrations of the samples diluted in 0.005 M H2SO4 were measured after elution from a 4.6×250 mm AMINEX® HPX-87H column (Bio-Rad, Hercules, Calif., USA) by 0.005 M H2SO4 at a flow rate of 0.4 ml/minute at 65° C. with quantitation by integration of glucose and cellobiose using refractive index detection (CHEMSTATION®, AGILENT® 1100 HPLC, Agilent Technologies, Santa Clara, Calif., USA) calibrated with standards of glucose and cellobiose. The resultant equivalents were used to calculate the percentage of cellulose conversion for each reaction.
Example 30 was repeated with both Cellulolytic Enzyme Composition #1 and Cellulolytic Enzyme Composition #2. Soluble reducing sugars were measured by HPLC as described in Example 30. Reactions without the addition of FeSO4 served as controls.
The hydrolysis was performed in a series of duplicate “mini-scale” hydrolysis reactions according to the procedure described in Example 30.

[3] = Hydrolysis of PCS stripped with chelator; format: biochemical; details: PCS (43 g per liter) stripped overnight with 10 mM chelator, then washed
Procedure: To test whether there was any significant amount of (accessible) Fe(II) in PCS, and whether stripping it with a chelator would improve PCS hydrolysis, washed PCS (43 g per liter) was “stripped” with 10 mM 2,2′-bipyridyl, 1,10-phenanthroline, or 1,7-phenanthroline. After overnight pre-incubation, the PCS was extensively washed to remove the chelator. The hydrolysis was performed in a series of duplicate “mini-scale” hydrolysis reactions performed according to the procedure described in Example 30.

[4] = target: T1, Trichoderma reesei Cel7B endoglucanase I (Trichoderma reesei, UniProt P07981); test: PASC hydrolysis by Cel7B endoglucanase I; format: biochemical
T1 construct: made in house; host or cells: Aspergillus oryzae JaL250
T1 sequence (P07981 23-459): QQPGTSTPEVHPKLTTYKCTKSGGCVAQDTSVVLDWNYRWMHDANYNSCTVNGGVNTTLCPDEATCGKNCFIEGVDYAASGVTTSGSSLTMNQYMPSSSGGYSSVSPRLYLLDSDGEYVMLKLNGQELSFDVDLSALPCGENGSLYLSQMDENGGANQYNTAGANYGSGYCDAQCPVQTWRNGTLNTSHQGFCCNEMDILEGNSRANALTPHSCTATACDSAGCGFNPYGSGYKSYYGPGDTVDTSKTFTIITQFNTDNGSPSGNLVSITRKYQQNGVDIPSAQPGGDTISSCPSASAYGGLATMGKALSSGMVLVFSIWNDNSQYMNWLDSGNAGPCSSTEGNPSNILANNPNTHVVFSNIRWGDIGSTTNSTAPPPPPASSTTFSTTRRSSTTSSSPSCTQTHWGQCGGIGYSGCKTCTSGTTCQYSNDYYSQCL

[5] = target: T2, Trichoderma reesei Cel7A cellobiohydrolase I (Trichoderma reesei, UniProt P62694); test: PASC hydrolysis by Cel7A cellobiohydrolase I; format: biochemical
T2 construct: made in house
T2 sequence (P62694 18-513): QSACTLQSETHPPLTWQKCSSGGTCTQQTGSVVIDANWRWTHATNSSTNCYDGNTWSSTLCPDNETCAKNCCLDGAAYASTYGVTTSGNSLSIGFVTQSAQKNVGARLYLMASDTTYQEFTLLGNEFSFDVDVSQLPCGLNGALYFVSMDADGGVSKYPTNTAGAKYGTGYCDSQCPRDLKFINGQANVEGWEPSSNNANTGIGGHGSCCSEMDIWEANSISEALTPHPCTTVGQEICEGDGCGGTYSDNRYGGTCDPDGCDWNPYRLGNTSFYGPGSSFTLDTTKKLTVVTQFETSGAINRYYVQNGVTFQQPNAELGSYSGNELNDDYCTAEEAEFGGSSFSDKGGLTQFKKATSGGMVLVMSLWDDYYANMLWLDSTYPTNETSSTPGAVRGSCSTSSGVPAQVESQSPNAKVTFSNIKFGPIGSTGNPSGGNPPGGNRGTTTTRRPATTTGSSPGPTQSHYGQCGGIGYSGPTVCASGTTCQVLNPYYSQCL

[6] = target: T3, Trichoderma reesei Cel5A endoglucanase II (Trichoderma reesei, UniProt P07982); test: PASC hydrolysis by Cel5A endoglucanase II; format: biochemical
T3 construct: made in house; host or cells: Aspergillus oryzae JaL250 (transformant JaL250AlLo27)
T3 sequence (P07982 22-418): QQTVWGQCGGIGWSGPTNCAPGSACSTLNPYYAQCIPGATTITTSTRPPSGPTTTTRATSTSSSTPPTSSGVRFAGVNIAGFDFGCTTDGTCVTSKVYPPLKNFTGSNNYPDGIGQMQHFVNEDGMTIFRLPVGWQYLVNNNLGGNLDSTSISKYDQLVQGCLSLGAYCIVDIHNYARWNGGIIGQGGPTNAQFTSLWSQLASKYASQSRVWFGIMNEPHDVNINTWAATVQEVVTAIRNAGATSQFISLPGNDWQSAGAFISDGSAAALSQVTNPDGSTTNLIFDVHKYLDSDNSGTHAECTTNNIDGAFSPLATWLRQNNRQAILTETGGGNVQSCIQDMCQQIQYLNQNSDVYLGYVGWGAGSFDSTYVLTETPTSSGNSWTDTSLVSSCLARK

[7] = ionic radii in crystals, 6-ligand coordination; cited from earlier work
[8] = target: Cellulolytic Enzyme Composition #1; test: mini-plate-scale PASC hydrolysis by Cellulolytic Enzyme Composition #1; format: biochemical, Trichoderma reesei; details: PASC; Enzymes: Cellulolytic Enzyme Composition #1; read-out: I50 (mean ± SD)
Procedure: (§3) Various (biologically common) divalent metal cations with variable ionic radii were tested in 2.8 ml Deep Well Microplates (VWR International, West Chester, Pa., USA) (“mini-plate-scale”) containing 1 ml suspensions of 25 g of AVICEL® per liter in 50 mM sodium acetate pH 5 at 50° C. Cellulolytic Enzyme Composition #1 was added at 0.25 g per liter for each hydrolysis. The mini-plates were sealed at 160° C. for 2 seconds using an ABGENE® ALPS 300™ sealer (ABgene, Rochester, N.Y., USA). The sealed mini-plates were incubated at 50° C. in an INNOVA® 4080 incubator shaker at 150 rpm. Soluble reducing sugars were measured by HPLC as described in Example 30.
In one series of “mini-scale” hydrolysis reactions performed according to the procedure described in Example 30, the effect of 1 mM to 10 mM FeSO4 was evaluated in the hydrolysis of AVICEL® by Cellulolytic Enzyme Composition #1. In a series of “mini-plate-scale” hydrolysis reactions performed according to the procedure described in Example 32, the effect of 1 mM to 10 mM FeSO4 was evaluated in the hydrolysis of PASC by Cellulolytic Enzyme Composition #1, except 2 g of PASC and 0.05 g Cellulolytic Enzyme Composition #1 per liter of 50 mM sodium acetate pH 5 were used.
The above study was extended to a range of concentration of Fe(II) and cellulose. In a series of “mini-plate-scale” hydrolysis reactions performed according to the procedure described in Example 32, except that 0.1 to 10 mM FeSO4, 0.6 to 4 g of PASC and 0.01 g of Cellulolytic Enzyme Composition #1 per liter of 50 mM sodium acetate pH 5 were used.

[9] = tested on: Cellulolytic Enzyme Composition #1; test: mini-plate-scale AVICEL hydrolysis by Cellulolytic Enzyme Composition #1; format: biochemical, Trichoderma reesei
Procedure: as §3
Iron-chelator complexes of variable size or redox property were tested for their ability to inhibit enzymatic hydrolysis of cellulose. […]

[10] = target: T4, Aspergillus oryzae CEL3A beta-glucosidase (Aspergillus oryzae, UniProt Q2UUD6); test: Cellobiose hydrolysis by CEL3A beta-glucosidase; format: biochemical
T4 construct: made in house
T4 sequence (Q2UUD6 20-861): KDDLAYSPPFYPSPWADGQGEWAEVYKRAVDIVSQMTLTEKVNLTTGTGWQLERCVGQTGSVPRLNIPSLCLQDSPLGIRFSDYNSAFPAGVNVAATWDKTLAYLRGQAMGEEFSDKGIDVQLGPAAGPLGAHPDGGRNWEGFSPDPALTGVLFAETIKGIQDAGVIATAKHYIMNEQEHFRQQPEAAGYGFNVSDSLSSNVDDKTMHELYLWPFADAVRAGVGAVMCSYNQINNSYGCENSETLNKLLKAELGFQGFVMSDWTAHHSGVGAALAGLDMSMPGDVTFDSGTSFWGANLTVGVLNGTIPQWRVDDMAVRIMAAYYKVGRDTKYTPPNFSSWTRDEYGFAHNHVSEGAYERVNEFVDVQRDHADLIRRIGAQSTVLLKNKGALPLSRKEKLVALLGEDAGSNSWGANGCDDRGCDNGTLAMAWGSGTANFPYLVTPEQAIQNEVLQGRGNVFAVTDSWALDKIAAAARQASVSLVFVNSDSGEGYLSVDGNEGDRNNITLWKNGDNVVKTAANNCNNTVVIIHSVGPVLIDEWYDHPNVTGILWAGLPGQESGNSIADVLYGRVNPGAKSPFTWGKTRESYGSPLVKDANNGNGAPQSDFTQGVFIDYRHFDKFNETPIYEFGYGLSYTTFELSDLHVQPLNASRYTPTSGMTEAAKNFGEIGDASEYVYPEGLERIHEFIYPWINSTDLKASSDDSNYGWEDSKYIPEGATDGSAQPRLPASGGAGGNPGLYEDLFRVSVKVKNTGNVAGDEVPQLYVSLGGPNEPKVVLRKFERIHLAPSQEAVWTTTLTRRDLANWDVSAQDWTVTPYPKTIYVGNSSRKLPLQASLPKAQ
Procedure: The Fe(II) inhibition of Aspergillus oryzae CEL3A beta-glucosidase was measured similarly, except cellobiose replaced PASC. The initial rate vs Fe(II) concentration plots appeared as “mixed” type, whose complexity prevented extraction of Kis.

[11] = tested on: Cellulolytic Enzyme Composition #2; test: mini-scale PCS hydrolysis by Cellulolytic Enzyme Composition #2; format: biochemical, Trichoderma reesei; details: 10 mM Fe(II) (FIG. 17B)
Procedure: Corn stover was pretreated at the U.S. Department of Energy National Renewable Energy Laboratory (NREL), […], Colo., USA, using dilute sulfuric acid. The following conditions were used for the pretreatment: 1.4 wt % sulfuric acid at 195° C. for 4.5 minutes. According to limit digestion with excess cellulase enzymes, the water-insoluble solids in the pretreated corn stover (PCS) contained 59.5% cellulose. Prior to use, the PCS was washed with a large volume of deionized water until soluble acid and sugars were removed. The dry weight of the water-washed PCS was 19.16%.
The effect of various salts (FeSO4, FeCl2, NaCl, Na2SO4, MnSO4, MnCl2) was determined in the hydrolysis of PCS by Cellulolytic Enzyme Composition #2. […] Cellulolytic Enzyme Composition #2 was added at 0.25 g per liter. Reactions without the addition of the salt served as controls. The capped tubes were incubated at 50° C. in an INNOVA® 4080 incubator shaker (New Brunswick Scientific Co., Inc., Edison, N.J., USA) at 150 rpm.
as §2
The degree of cellulose conversion to glucose plus cellobiose (% conversion) was calculated using the following equation:
% Conversion=(glucose+cellobiose×1.053)(mg/ml)×100×162/cellulose(mg/ml)×180)=(glucose+cellobiose×1.053)(mg/ml)×100/(cellulose(mg/ml)×1.111)
In this equation the factor 1.111 reflects the weight gain in converting cellulose to glucose, and the factor 1.053 reflects the weight gain in converting cellobiose to glucose. Cellulose in PCS was determined by a limit digest of PCS to release glucose and cellobiose.

[12] = 0-15 mM FeSO4, 0.6-4 g PASC per liter

SMILES | Effect on AVICEL hydrolysis [1] | Effect of chelator on enzyme in the absence of FeSO4 [2] | increase in hydrolysis extent [3] | Type of initial rate vs Fe(II) concentration plots [4, 12] | IC50 ([4]; PASC, CEL7B EGI, 40 mg enzyme per liter, read-out: I50 (mean ± SD)) [mM] | Type of initial rate vs Fe(II) concentration plots [5, 12] | IC50 ([5]; PASC, CEL7A CBHI, 40 mg enzyme per liter, read-out: I50 (mean ± SD)) [mM] | Type of initial rate vs Fe(II) concentration plots [6, 12] | IC50 ([6]; PASC, CEL5A EGII, 40 mg enzyme per liter, read-out: I50 (mean ± SD)) [mM] | Radius [7] [Å] | IC50 [8] [mM] | Effect on enzymatic cellulolysis: loss in initial rate ([9]; 10 mM, 25 g AVICEL and 0.25 g enzyme per liter, pH 5, 50° C.) | Effect on enzymatic cellulolysis: loss in extended hydrolysis extent ([9]; 10 mM, 25 g AVICEL and 0.25 g enzyme per liter, pH 5, 50° C., after 4 days) | IC50 ([9]; Avicel, Enzymes: Cellulolytic Enzyme Composition #1, read-out: I50 (mean ± SD)) [mM] | Type of initial rate vs Fe(II) concentration plots ([10]; 0-15 mM FeSO4, cellobiose replaced PASC) | IC50 ([10]; CEL3A BG, on cellobiose hydrolysis, read-out: I50 (mean ± SD)) [mM] | activity loss [11]
c1ccc(-c2ccccn2)nc1 [2,2′-bipyridyl] | No significant inhibition | significant inhibition | approximately 4% |  |  |  |  |  |  |  |  |  |  |  |  |  | 
[Fe+2] [Fe(II)] |  |  |  | mixed | 1.8 ± 0.2 | mixed | 7 ± 2 | mixed | 12 ± 4 | 0.61 | 14 ± 1 | ~70% loss in initial rate, ~70% loss in extended hydrolysis extent | ~70% loss in initial rate, ~70% loss in extended hydrolysis extent | 2 ± 1 | mixed | 13 ± 2 | approximately 70%
